The values below come from patent US20160221948A1, “NITROGEN-CONTAINING SATURATED HETEROCYCLIC COMPOUND” (SUMITOMO CHEMICAL COMPANY, LIMITED, priority 2013, published 2016).

Where only a bound is given, the exact number is not on record here.

Assay [1] relates to Slc:ddY mice. Briefly: Mouse Y-shaped maze test, scopolamine-induced memory impairment. The class given is in vivo. To be noted: for spontaneous alternations: Scopolamine HBr 0.6 mg/kg subcutaneous. The procedure:
Evaluation of amelioration in cognitive impairment using mouse Y-shaped maze test (hereinafter, may be called “Y-maze test”)
In the Y-maze test using Slc:ddY mice (male, Japan SLC, Inc.) with body weight of 25-35 g or 27-30 g, when 0.6 mg/kg of Scopolamine HBr (cat. No. S0929, Sigma Aldrich, USA) is subcutaneously administered to mice, memory impairment is caused, and reducing in spontaneous alternation is observed. Accordingly, mice were pre-treated by orally receiving compounds involved with the present invention, and ameliorating action in memory impairment was evaluated. […] (hereinafter, spontaneous alternations in each group in Example 21 are shown: 0.5% MC receiving group, 71.2±3.5; Scopolamine receiving group, 47.5±2.6; 1 mg/kg receiving group, 60.7±2.6; 3 mg/kg receiving group, 64.6±2.2.)

Assay [2] concerns the target T1, SSTR3 (Homo sapiens, UniProt P32745).
T1 construct: expressed in transfected cells
Briefly: Binding affinity using cell membrane from cells expressing SSTR subtypes.

The target of assay [3] is human SSTR4 (Homo sapiens, UniProt P31391). Put plainly: Evaluation of agonist activities using human SSTR4-stably expressing cells (aequorin luminescence). The class given is cell-based. Details: expressed in transfected cells; host or cells: HEK293. In a few lines: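 HEK293 cells stably expressing SSTR4, transiently given Gα16 and apoaequorin, were loaded with 0.5 μmol/L coelenterazine H for 4 h at room temperature. After compound addition in Hanks/20 mM Hepes/0.1% BSA, luminescence was read for 90 s. Activity is relative to 1 μmol/L somatostatin as 100%.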
human SSTR4, sequence (P31391 whole entry): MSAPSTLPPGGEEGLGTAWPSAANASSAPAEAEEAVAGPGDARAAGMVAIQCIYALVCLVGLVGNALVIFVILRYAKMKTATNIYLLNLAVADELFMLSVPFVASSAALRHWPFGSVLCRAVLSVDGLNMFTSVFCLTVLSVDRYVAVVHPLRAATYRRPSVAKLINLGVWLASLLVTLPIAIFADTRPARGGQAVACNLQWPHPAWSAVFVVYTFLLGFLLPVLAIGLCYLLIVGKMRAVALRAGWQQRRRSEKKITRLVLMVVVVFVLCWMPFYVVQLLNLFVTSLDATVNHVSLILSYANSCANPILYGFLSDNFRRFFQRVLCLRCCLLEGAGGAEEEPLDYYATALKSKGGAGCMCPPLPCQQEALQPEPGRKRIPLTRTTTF

The target of assay [4] is T2, SSTR5 (Homo sapiens, UniProt P35346).
T2 construct: expressed in transfected cells
T2 sequence (P35346 whole entry, species assumed): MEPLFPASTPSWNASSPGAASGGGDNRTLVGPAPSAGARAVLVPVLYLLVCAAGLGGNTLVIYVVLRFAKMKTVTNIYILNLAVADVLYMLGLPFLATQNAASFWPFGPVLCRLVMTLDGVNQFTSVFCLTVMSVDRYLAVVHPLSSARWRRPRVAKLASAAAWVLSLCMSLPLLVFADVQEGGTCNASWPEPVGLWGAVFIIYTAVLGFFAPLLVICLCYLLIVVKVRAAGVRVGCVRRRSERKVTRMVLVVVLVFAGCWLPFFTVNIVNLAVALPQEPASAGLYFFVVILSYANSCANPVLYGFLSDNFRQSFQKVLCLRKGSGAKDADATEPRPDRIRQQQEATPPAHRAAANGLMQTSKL
Briefly: Binding affinity using cell membrane from cells expressing SSTR subtypes.

T1 sequence (P32745 whole entry, species assumed): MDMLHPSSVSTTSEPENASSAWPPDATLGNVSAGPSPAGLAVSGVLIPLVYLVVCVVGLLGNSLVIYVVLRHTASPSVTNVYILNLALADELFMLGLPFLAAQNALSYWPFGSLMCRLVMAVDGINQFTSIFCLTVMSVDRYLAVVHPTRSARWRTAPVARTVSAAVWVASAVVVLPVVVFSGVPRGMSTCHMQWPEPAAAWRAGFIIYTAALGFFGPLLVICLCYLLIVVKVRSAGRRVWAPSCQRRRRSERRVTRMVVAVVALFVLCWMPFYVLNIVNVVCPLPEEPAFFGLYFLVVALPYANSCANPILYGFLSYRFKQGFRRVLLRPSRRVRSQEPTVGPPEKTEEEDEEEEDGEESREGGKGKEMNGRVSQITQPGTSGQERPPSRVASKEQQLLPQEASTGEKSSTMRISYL

As usually defined, the Ki is a dissociation constant, usually derived from enzyme kinetics or from competition with a known ligand. A high value points to lower affinity. In general, EC50 refers to the concentration giving half of the maximal effect. `CN1CCC[C@H](C(=O)NC(C)(C)c2cc(Cl)ccc2Cl)C1` [Example 21, (3S)—N-[2-(2,5-dichlorophenyl)propane-2-yl]-1-methylpiperidine-3-carboxamide]: the results for the spontaneous alternations in assay [1] (1 mg/kg oral) and in assay [1] (3 mg/kg oral) were 60.7±2.6 and 64.6±2.2, respectively. Besides, the “ameliorating action in memory impairment” value in assay [1] (at 1 or 3 mg/kg (oral)) was “significant ameliorating action in memory impairment”. Moreover, the inhibition constant (Ki) in assay [2] is more than 3000 nM; in assay [4], more than 5000 nM. In addition, the “SSTR4 agonist activity compared with other compounds” value in assay [3] (Tables 25 to 27) was “stronger SSTR4 agonist activity”. In assay [3] (luminescence signal, 1 μmol/L somatostatin taken as 100%), this molecule registered an EC50 of 2 nM.
